# Experimental data published in paper PMC10632401, “Cell-free biosynthesis combined with deep learning accelerates de novo-development of antimicrobial peptides” (Nature Communications, 2023).
# Read-outs that look alike come from different tables or passages of the source. Residues, ends and D or L forms follow the SMILES beside them. No end group written: not given here.
# Legend:
# [1] = test system: E. coli MG1655; settings: MG1655, 20 h
# [2] = test system: B. subtilis PY79; settings: PY79, 20 h
# [3] = test system: A. baumannii (isolate from the human abdominal wall); settings: 20 h
# [4] = test system: K. pneumoniae DSM 30104; settings: DSM 30104, 20 h
# [5] = test system: P. aeruginosa DSM 1117; settings: DSM 1117, 20 h
# [6] = test system: E. faecium (isolate from the gut of the cow); settings: 20 h
# [7] = in vitro; settings: human
# [8] = test system: S. aureus DSM 11729 (MRSA); settings: DSM 11729, 20 h
# [9] = test system: S. pneumoniae D39; settings: D39, 20 h
Compound,E. coli MIC [1],B. subtilis MIC [2],MIC A. baumannii [3],MIC K. pneumoniae [4],MIC P. aeruginosa [5],MIC E. faecium [6],CC50 at 24 h [7],CC50 [7],CC50,MIC S. aureus (MRSA) [8],MIC S. pneumoniae [9]
CC[C@H](C)[C@H](NC(=O)CNC(=O)[C@@H](N)CCSC)C(=O)NCC(=O)N[C@@H](CCCCN)C(=O)N[C@@H](Cc1ccccc1)C(=O)N[C@@H](CCC(N)=O)C(=O)N[C@@H](CCCCN)C(=O)N[C@@H](CCSC)C(=O)N[C@@H](CCCNC(=N)N)C(=O)N[C@@H](Cc1ccccc1)C(=O)N[C@H](C(=O)NCC(=O)N[C@@H](C)C(=O)N[C@H](C(=O)N[C@@H](CCCNC(=N)N)C(=O)N[C@@H](C)C(=O)N[C@@H](CO)C(=O)N[C@@H](CCCCN)C(=O)NCC(=O)N[C@H](C(=O)N[C@@H](C)C(=O)N[C@@H](CCCCN)C(=O)NCC(=O)N[C@@H](CC(C)C)C(=O)N[C@@H](CC(C)C)C(=O)N[C@@H](CCCNC(=N)N)C(=O)N[C@H](C(=O)N[C@@H](C)C(=O)N[C@@H](C)C(=O)N[C@H](C(=O)N[C@@H](CCCNC(=N)N)C(=O)N[C@H](C(=O)NCC(=O)N[C@@H](CCCNC(=N)N)C(=O)N[C@@H](CCCNC(=N)N)C(=O)N[C@@H](C)C(=O)N[C@@H](CC(C)C)C(=O)N[C@H](C(=O)N[C@H](C(N)=O)[C@@H](C)O)[C@@H](C)O)[C@@H](C)O)[C@@H](C)CC)[C@@H](C)CC)C(C)C)[C@@H](C)CC)[C@@H](C)CC [AMP #21] (H-MGIGKFQKMRFIGAIRASKGVAKGLLRIAAIRTGRRALTT-NH2),10.4 µM,0.5 µM,0.8 µM,25.0 µM,12.5 µM,6.3 µM,> 250 µM,,,,
CC[C@H](C)[C@H](NC(=O)[C@H](CO)NC(=O)[C@H](CO)NC(=O)[C@H](CO)NC(=O)[C@H](CCCNC(=N)N)NC(=O)[C@@H](NC(=O)[C@H](CO)NC(=O)[C@@H](N)CCSC)[C@@H](C)O)C(=O)N[C@@H](CCCNC(=N)N)C(=O)N[C@@H](CCCNC(=N)N)C(=O)N[C@@H](CC(C)C)C(=O)N[C@H](C(=O)N[C@@H](CCC(=O)O)C(=O)N[C@@H](C)C(=O)N[C@H](C(=O)N[C@@H](CCCNC(=N)N)C(=O)N[C@H](C(=O)N[C@@H](CCCNC(=N)N)C(=O)N[C@@H](Cc1ccccc1)C(=O)N[C@@H](CCCNC(=N)N)C(=O)N[C@@H](C)C(=O)N[C@@H](C)C(=O)N[C@@H](CC(C)C)C(=O)N[C@@H](CCCNC(=N)N)C(=O)N[C@H](C(=O)N[C@H](C(=O)N[C@@H](CC(C)C)C(=O)N[C@@H](Cc1ccccc1)C(=O)N[C@@H](Cc1ccccc1)C(=O)N[C@@H](C)C(=O)N[C@@H](CC(C)C)C(=O)N[C@@H](CCCNC(=N)N)C(=O)N[C@H](C(=O)N[C@H](C(=O)N[C@@H](CCCCN)C(=O)N[C@@H](CCCNC(=N)N)C(=O)N[C@@H](CCCNC(=N)N)C(=O)N1CCC[C@H]1C(=O)N[C@@H](CCCNC(=N)N)C(=O)N[C@@H](CCCNC(=N)N)C(N)=O)[C@@H](C)O)[C@@H](C)O)C(C)C)[C@@H](C)O)[C@@H](C)O)C(C)C)C(C)C [AMP #23] (H-MSTRSSSIRRLVEAVRTRFRAALRTVLFFALRTTKRRPRR-NH2),20.8 µM,1.6 µM,,,,,,79.1 µM,,,
CC[C@H](C)[C@H](NC(=O)[C@H](CCCNC(=N)N)NC(=O)[C@H](CCCNC(=N)N)NC(=O)[C@@H](NC(=O)[C@H](C)NC(=O)[C@H](CCC(=O)O)NC(=O)[C@H](CCCCN)NC(=O)[C@H](CCCNC(=N)N)NC(=O)[C@H](CO)NC(=O)[C@H](CCCNC(=N)N)NC(=O)[C@H](CC(C)C)NC(=O)[C@@H](NC(=O)[C@H](CC(N)=O)NC(=O)[C@H](CCCNC(=N)N)NC(=O)[C@@H](NC(=O)[C@H](CCCCN)NC(=O)[C@H](CCSC)NC(=O)[C@@H](N)CCSC)[C@@H](C)CC)[C@@H](C)O)C(C)C)C(=O)N[C@@H](Cc1ccccc1)C(=O)N[C@@H](CO)C(=O)N[C@@H](CC(C)C)C(=O)N[C@@H](CCCNC(=N)N)C(=O)N[C@@H](CCCNC(=N)N)C(=O)N[C@@H](CCCNC(=N)N)C(=O)N[C@@H](CO)C(=O)N[C@H](C(=O)N[C@@H](Cc1ccccc1)C(=O)N[C@H](C(=O)N[C@@H](CCC(=O)O)C(=O)N[C@@H](CCSC)C(=O)N[C@@H](C)C(=O)N[C@@H](CCCNC(=N)N)C(=O)N[C@@H](C)C(=O)N[C@@H](Cc1ccccc1)C(=O)N[C@@H](CCCNC(=N)N)C(=O)N[C@@H](CCCNC(=N)N)C(=O)N[C@@H](Cc1ccccc1)C(=O)N[C@@H](CCCCN)C(=O)N[C@@H](C)C(=O)N[C@@H](CCCNC(=N)N)C(N)=O)[C@@H](C)O)C(C)C [AMP #28] (H-MMKIRNTLRSRKEAVRRIFSLRRRSVFTEMARAFRRFKAR-NH2),25.0 µM,0.4 µM,1.6 µM,12.5 µM,25.0 µM,3.1 µM,145 µM,,,,
H-MCFCFKAGPKICRGLQRKKKKFKYQTSFTKTGFGFLTKPKSPAR-NH2 (cysteines drawn unpaired) [AMP #10],50.0 µM,0.6 µM,,,,,,,105 µM,,
H-MCFCRYRFFYRRRIRFFKWGPYFYVWFGFPFGRKAFFLSVFRRRFC-NH2 (cysteines drawn unpaired) [AMP #19],25.0 µM,8.4 µM,,,,,,,> 250 µM,,
H-MCFFPRRKSKVKVKGGLCRLLFIFFKTTFCFKAKTKKEIKKGTGKKIVR-NH2 (cysteines drawn unpaired) [AMP #18],50.0 µM,3.1 µM,,,,,,,153 µM,,
H-MKEKKFFFFCFKKRRGFYKRRFFCKTTCFTYCFYKPRGTKTMPYVFSE-NH2 (cysteines drawn unpaired) [AMP #14],,,25.0 µM,,12.5 µM,6.3 µM,,,,25.0 µM,
H-MWFDRKKFFWPGVCLFLLFFPKRFYKKGPEKVFSFRKKYKFARKCKCKL-NH2 (cysteines drawn unpaired) [AMP #12],,,,25.0 µM,25.0 µM,12.5 µM,,,,,
MAIRIIGRLARVRARVVARVRSRLLADDPPEDLLRVARRRKGRRWLFLS-NH2 [AMP #24],25.0 µM,1.6 µM,,,,6.3 µM,91.7 µM,,,,
MEAFKKKPRLPLFKVKLTRFLERARGLGSYRIFEFFKKFGVKKFVSSLR-NH2 [AMP #15],25.0 µM,0.8 µM,1.6 µM,1.6 µM,12.5 µM,1.6 µM,30.7 µM,,,,25.0 µM
MGWWFPPKTGNGAGKAFKKAAAAKWGGLFLKAAWFANKGEWGGGFPKGY-NH2 [AMP #9],25.0 µM,3.1 µM,,25.0 µM,,6.3 µM,146 µM,,,,
MKAKKWFESLFKTFFKKGKGIYPKSSFEKEKKTDKKKKFGGWVWFKK-NH2 [AMP #16],6.3 µM,0.8 µM,1.6 µM,2.4 µM,12.5 µM,1.6 µM,39.3 µM,,,,
MKKKKKGILKQNNKKKKYTLFNRMVVFLFLGFIMIIFVQKYKKVIYHK-NH2 [AMP #29],12.5 µM,6.3 µM,,,,,> 250 µM,,,,
MKLRRRLRTRMVALLVLGVLFLLMLFFIIFLRRMLMRRFRA-NH2 [AMP #26],100.0 µM,37.5 µM,,,,,,> 250 µM,,,
MKQPSKTKTHFKYFLLFLKSVKKVAGFKKKKKKYHWRSYKEGSCFRKRT-NH2 [AMP #13],25.0 µM,1.6 µM,3.1 µM,6.3 µM,12.5 µM,1.6 µM,25.8 µM,,,,12.5 µM
MLFGSRAKKYGKEAKQEKSFQYPKSSFVACKKKWKRSKHFFKTFKKKVS-NH2 [AMP #1],> 100 µM,0.8 µM,,,,,113 µM,,,,
MNNRGPLGRRFKARRKWKKFVAGKMKKKRKRFKGFKKKGGFTPFVKKFV-NH2 [AMP #3],12.5 µM,0.8 µM,6.3 µM,,,1.6 µM,68 µM,,,,
MNTTSNMIHRAVQQKRISFRAAKLTVLFLFKRRLLRRLLRHHEN-NH2 [AMP #27],12.5 µM,0.4 µM,2.4 µM,6.3 µM,12.5 µM,1.6 µM,75.7 µM,,,,
MRNFFKKTRLKYKGKKELIKKSRAFGLKTKKRSGFFFPRALKYEEEFY-NH2 [AMP #7],> 100 µM,1.6 µM,,,,,133 µM,,,,
MRRKTPVKWKTFFKALKHKKKIFKKTFEKFKFLAKGPAFLKGFDQKLKS-NH2 [AMP #5],2.1 µM,0.5 µM,1.0 µM,0.8 µM,3.1 µM,1.6 µM,68.4 µM,,,,25.0 µM
MWIKWKKPRKWGRRLKKKEKEELGDYIYLYCKVYRLFGFLPYFISKKTA-NH2 [AMP #17],12.5 µM,6.3 µM,6.3 µM,,,6.3 µM,134 µM,,,,
MYLKKFLALKNSLKKLSPFKCAVKSWLKKCAEVTFYSKLLGRRGKKDGN-NH2 (cysteines drawn unpaired) [AMP #6],25.0 µM,2.1 µM,6.3 µM,12.5 µM,25.0 µM,6.3 µM,67.5 µM,,,,
